Experiments:
Test in all cases: relative viability (nuclei count vs DMSO), 5 days (fraction); higher = more cells survive
Tipifarnib + Luminespib = compound: Cn1cncc1[C@@](N)(c1ccc(Cl)cc1)c1ccc2c(c1)c(-c1cccc(Cl)c1)cc(=O)n2C [Tipifarnib] + CCNC(=O)c1noc(-c2cc(C(C)C)c(O)cc2O)c1-c1ccc(CN2CCOCC2)cc1 [Luminespib] (partner 0.01 µM)
Outline: (§1)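 Each reported value is a median over duplicate plates. It expresses relative viability: treated-well nuclei count divided by vehicle-well nuclei count. Lung cancer cell lines in 1536-well plates were dosed by pin tool a day after seeding, alone with one drug or with a fixed anchor-drug dose plus five library-drug doses (not always all listed) in √10 steps, and nuclei were counted after 5 days.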

Tipifarnib + Bortezomib = compound: Cn1cncc1[C@@](N)(c1ccc(Cl)cc1)c1ccc2c(c1)c(-c1cccc(Cl)c1)cc(=O)n2C [Tipifarnib] + CC(C)C[C@H](NC(=O)[C@H](Cc1ccccc1)NC(=O)c1cnccn1)B(O)O [Bortezomib] (partner 0.002 µM)
Outline: as §1

Tipifarnib + Dasatinib = compound: Cn1cncc1[C@@](N)(c1ccc(Cl)cc1)c1ccc2c(c1)c(-c1cccc(Cl)c1)cc(=O)n2C [Tipifarnib] + Cc1nc(Nc2ncc(C(=O)Nc3c(C)cccc3Cl)s2)cc(N2CCN(CCO)CC2)n1 [Dasatinib] (partner 0.075 µM)
Outline: as §1

Tipifarnib + Palbociclib = compound: Cn1cncc1[C@@](N)(c1ccc(Cl)cc1)c1ccc2c(c1)c(-c1cccc(Cl)c1)cc(=O)n2C [Tipifarnib] + CC(=O)c1c(C)c2cnc(Nc3ccc(N4CCNCC4)cn3)nc2n(C2CCCC2)c1=O [Palbociclib] (partner 0.5 µM)
Outline: as §1

Cell Line	relative viability (Tipifarnib + Luminespib; first compound 0.01 µM)	relative viability (Tipifarnib + Luminespib; first compound 0.03162 µM)	relative viability (Tipifarnib + Luminespib; first compound 0.1 µM)	relative viability (Tipifarnib + Luminespib; first compound 0.3162 µM)	relative viability (Tipifarnib + Luminespib; first compound 1 µM)	relative viability (Tipifarnib + Bortezomib; first compound 0.01 µM)	relative viability (Tipifarnib + Bortezomib; first compound 0.03162 µM)	relative viability (Tipifarnib + Bortezomib; first compound 0.1 µM)	relative viability (Tipifarnib + Bortezomib; first compound 0.3162 µM)	relative viability (Tipifarnib + Bortezomib; first compound 1 µM)	relative viability (Tipifarnib + Dasatinib; first compound 0.01 µM)	relative viability (Tipifarnib + Dasatinib; first compound 0.03162 µM)	relative viability (Tipifarnib + Dasatinib; first compound 0.1 µM)	relative viability (Tipifarnib + Dasatinib; first compound 0.3162 µM)	relative viability (Tipifarnib + Dasatinib; first compound 1 µM)	relative viability (Tipifarnib + Palbociclib; first compound 0.01 µM)	relative viability (Tipifarnib + Palbociclib; first compound 0.03162 µM)	relative viability (Tipifarnib + Palbociclib; first compound 0.1 µM)	relative viability (Tipifarnib + Palbociclib; first compound 0.3162 µM)	relative viability (Tipifarnib + Palbociclib; first compound 1 µM)
NCI-H661	0.898	0.844	0.847	0.713	0.669	0.967	0.818	0.569	0.598	0.744	1.11	0.949	0.914	0.601	0.619	0.435	0.349	0.36	0.315	0.35
NCI-H1993	0.697	0.644	0.57	0.504	0.481	1.12	0.852	0.955	0.608	0.806	0.596	0.515	0.495	0.527	0.516	0.604	0.531	0.431	0.463	0.413
NCI-H1437	1.25	1.17	1.15	0.913	1.07	0.54	0.554	0.403	0.41	0.306	0.446	0.482	0.452	0.416	0.214	0.327	0.357	0.336	0.288	0.303
UMC-11	0.99	0.845	0.711	0.665	0.621	0.667	0.498	0.465	0.447	0.242	0.419	0.441	0.422	0.357	0.29	0.342	0.306	0.295	0.273	0.262
201T	1.05	1.06	0.991	0.972	0.938	1.12	1.14	1.06	1.05	0.788	0.572	0.619	0.582	0.58	0.498	0.352	0.373	0.357	0.341	0.354
ChaGo-K-1	0.669	0.558	0.454	0.505	0.389	0.976	1	0.954	0.978	0.53	0.622	0.56	0.589	0.525	0.324	0.996	0.937	0.932	0.885	0.758
NCI-H1650	0.19	0.208	0.189	0.203	0.184	0.224	0.204	0.202	0.209	0.191	0.274	0.254	0.24	0.22	0.202	0.295	0.211	0.243	0.205	0.183
LOU-NH91	0.321	0.336	0.323	0.322	0.323	0.436	0.42	0.558	0.534	0.457	0.53	0.505	0.507	0.451	0.338	0.494	0.516	0.592	0.541	0.58

From the supplement of paper PMC10307832
